This data set in a line: Change in the number of particles in mitomycin C in a stability test under severe conditions (MFI DPA5200 particle quantification). The format is physicochemical. Particulars: for number of particles ≥10 μm in 10 mg of mitomycin C / number of particles ≥25 μm in 10 mg of mitomycin C: average of triplicates; for change in number of particles having a diameter of 10 μm or more / change in number of particles having a diameter of 25 μm or more: after 300-hour exposure to severe conditions (50° C.), result in words. On the procedure: Change in the Number of Particles in Mitomycin C in a Stability Test under Severe Conditions
300 mg of each mitomycin C prepared in Example 1 and Comparative Examples 1 and 2 is separately placed into a vial, and stored at 50° C. under uncontrolled humidity. Sampling was performed after 0, 191 and 300 hours from the onset of the storage, and whether the number of particles would increase was examined according to the following section “Quantification of Particles in Mitomycin C”.
Quantification of Particles in Mitomycin C
10 mg of mitomycin C was weighed out accurately, water for injection was added to make up the volume to 25 mL exactly, and the resulting solution was used as a sample solution.
The particles in mitomycin C were analyzed with MFI DPA5200 (Protein Simple). Prior to the analysis of the sample solution, the passage in the analytical device was washed with water for injection to obtain the particle-free baseline. 1 mL of the sample solution was drawn into a pipette tip and then loaded on the sample holder. The sample solution was allowed to pass into the passage at a flow rate 0.1 mL/min to completely replace the liquid in the passage, and then the analysis of the sample; solution was started (volume for analysis: 0.61 mL).
The obtained data was filtered on MVAS 1.3 software to extract particles having an aspect ratio of less than 0.85 for the purpose of excluding bubbles. The number of particles having a diameter of 10 μm or more in 10 mg of mitomycin C and the number of particles having a diameter of 25 μm or more in 10 mg of mitomycin C were separately counted using Microsoft Excel.
The above procedure was repeated 3 times, and the average value of the triplicates was used as the quantitative value.

[1] abbreviates: 191 hours storage at 50° C. under uncontrolled humidity.
Where [2] appears, read: 300 hours storage at 50° C. under uncontrolled humidity.
Setting [3] is: Initial (0 hours), storage at 50° C. under uncontrolled humidity.

As for `CO[C@@]12[C@H](COC(N)=O)C3=C(C(=O)C(C)=C(N)C3=O)N1C[C@@H]1N[C@@H]12` [Comparative Example 1, Mitomycin C], the “change in number of particles having a diameter of 10 μm or more” value (“change in number … of 10 μm or more” for short) is given as “significant increase” and the “change in number of particles having a diameter of 25 μm or more” value (from here on “change in number … of 25 μm or more”) was “significant increase”. Further, under setting [1], the “number of particles ≥10 μm in 10 mg of mitomycin C” value (from here on “number of particles ≥10 μm”) came out at 7063 and the “number of particles ≥25 μm in 10 mg of mitomycin C” value (“number of particles ≥25 μm” for short) turned out to be 861. Besides, under setting [2], the “number of particles ≥10 μm” value is given as 22527 and the “number of particles ≥25 μm” value was determined as 3005. Further, under setting [3], the “number of particles ≥10 μm” value amounted to 2118 and the “number of particles ≥25 μm” value is listed as 246.

Take `CO[C@@]12[C@H](COC(N)=O)C3=C(C(=O)C(C)=C(N)C3=O)N1C[C@@H]1N[C@@H]12` [Comparative Example 2, Mitomycin C]: the “change in number … of 10 μm or more” value is given as “significant increase” and the “change in number … of 25 μm or more” value was “significant increase”. Under setting [1], the “number of particles ≥10 μm” value was found to be 279617 and the “number of particles ≥25 μm” value came to 51953. Also, under setting [2], the “number of particles ≥10 μm” value worked out at 301967 and the “number of particles ≥25 μm” value came to 36216. For the same compound, under setting [3], the “number of particles ≥10 μm” value turned out to be 3853 and the “number of particles ≥25 μm” value is 178.

`CO[C@@]12[C@H](COC(N)=O)C3=C(C(=O)C(C)=C(N)C3=O)N1C[C@@H]1N[C@@H]12` [Example 1, mitomycin C]: the “change in number … of 10 μm or more” value was “almost no increase” and the “change in number … of 25 μm or more” value is recorded as “almost no increase”. Under setting [1], the “number of particles ≥10 μm” value was 3624 and the “number of particles ≥25 μm” value is given as 273. Further, under setting [2], the “number of particles ≥10 μm” value was determined as 5683 and the “number of particles ≥25 μm” value is 314. Under setting [3], the “number of particles ≥10 μm” value stood at 3047 and the “number of particles ≥25 μm” value came to 151.

For the origin of these results see patent US10125142B2, “Method for purifying mitomycin C” (Kyowa Hakko Kirin Co., Ltd., priority 2015, dated 2018).
